In series [1] the test system is Primary murine preosteoclasts. The series can be described thus: Osteoclastogenesis assay with conditioned medium from TiP-exposed macrophages (TRAP staining). Format: cell-based, mouse. Conditions: 10^-6 M, conditioned medium of TiP-exposed macrophages. The procedure:
Osteoclastogenesis assay. Preosteoclasts, prepared like the BMDMs, were plated in 96-well plates (7,000 cells per well, for TRAP staining, see below) or in 6-well plates (200,000 cells per well, for RNA) in standard medium supplemented with 20 ng/ml M-CSF and 50 ng/ml RANKL (R&D Systems, Minneapolis, MN, United States). After 48 h, the medium was replaced by the conditioned medium of BMDM, supplemented with RANKL and M-CSF. Where indicated, 10^−6 M SNV or VIP were added. […], cells were stained using a TRAP kit (Sigma-Aldrich, St. Louis, MO, United States), and multinucleated (>3 nuclei) TRAP-positive cells were defined as osteoclasts. Images were acquired at an original magnification of ×4 (Evos FLC, Life Technologies, MS, United States). The number of osteoclasts and the total osteoclast area were measured using ImageJ software (National Institutes of Health, Bethesda, MD, United States).
(§1) FIGURE 4 VIP and SNV alleviate the osteoclastogenic effect of TiP-induced inflammation. (A) Primary BMDM were exposed to TiP and RNA was collected after 24 h. mRNA expression are presented as Mean±SD fold change versus Control. * p<0.05 vs. Control. (B-D) Primary murine preosteoclasts were cultured in 20 ng/ml M-CSF and 50 ng/ml RANKL for 48 h. Conditioned medium from macrophages (Control) and macrophages exposed to Ti particles (Ti, as in A) was then added together with 10^-6M of VIP or SNV (or saline) for 48 h before TRAP staining. Data are Mean±SD for osteoclast % surface area (B) and number per well (C). (D) Representative images all acquired at a 4x original magnification. The scale bar for all images is in the upper left panel. n=8, #p<0.05 vs. Control; *p<0.05 vs. Ti, ANOVA. (E) Primary murine macrophages/preosteoclasts were cultured in 20 ng/ml M-CSF and Ti particles, 10^-6M of VIP or SNV, or saline only. MTT viability assay was performed after 1, 3 and 5 days and presented as optical density values. N=5, no statistical differences were found between the treatment groups. Data are Mean±SD in arbitrary OD units.

For series [2], the system named is Primary murine macrophages/preosteoclasts. The series can be described thus: MTT viability assay. The class given is cell-based, mouse. As to conditions: 10^-6 M, 20 ng/ml M-CSF, 1, 3 and 5 days of treatment, N=5. The procedure:
MTT assay. For proliferation assay, macrophages were plated (4000 cells/well) into 96-well plate with standard medium supplemented with 20 ng of M-CSF. Cells were treated as indicated with either TiP, SNV, VIP (10^−6 M) or vehicle at first day of incubation. Cells viability was determined using dimethylthiazol-diphenyl-tetrazolium-bromide (MTT) after 1, 3 or 5 days. MTT was added to a final concentration of 5 mg/ml and incubated for 4 h at 37°C. After complete solubilization of the die in DMSO, plates were read at 570 nm in a colorimetric plate reader.
as §1, with “(E) Primary murine macrophages/preosteoclasts were cultured in 20 ng/ml M-CSF and Ti particles, 10^-6M of VIP or SNV, or saline only. MTT viability assay was performed after 1, 3 and 5 days and presented as optical density values. N=5, no statistical differences were found between the treatment groups. Data are Mean±SD in arbitrary OD units.” left out
For orientation: Tetrazolium dyes change colour on reduction, which living cells bring about.

[3] abbreviates: 20 ng/ml M-CSF + 50 ng/ml RANKL, TRAP staining, n=8, vs Ti.

Consider “Stearyl–HSDAVFTDNYTRLRKQ-Nle-AVKKYLNSILN-NH2 [SNV, Stearyl-norleucine-VIP, lipophilic VIP derivative with N-terminal stearic acid and norleucine in place of methionine at position 17]”, for which, in series [1], the “Inhibitory effect on osteoclasts compared with VIP” value was “stronger inhibitory effect on osteoclasts than VIP”. In series [1] (setting [3]), the Osteoclast area result is recorded as “attenuated” and the Osteoclast number result is reported as “attenuated”. In addition, the “Viability of the cells (MTT, optical density)” value in series [2] is reported as “neither VIP nor SNV affected the viability”.

These data come from paper PMC8131842, “Therapeutic Potential of Vasoactive Intestinal Peptide and its Derivative Stearyl-Norleucine-VIP in Inflammation-Induced Osteolysis” (Frontiers in Pharmacology, 2021).
